US11286281B2, “Homodetic cyclic peptides targeting alpha-4-beta-7 integrin” (priority 2017, dated 2022)
Several values for one entry are separate records, joined by “and”; a condition that tells them apart may be missing. Equal entries are not always repeated. Numbered stars: 1 amine (or outer) side, 2 acyl side, 3 side chain; on linkers, the order of the positions; unused ones are H or OH. Square brackets hold non-standard residues; d marks the D form. Peptide text beside a SMILES is read from it. X1 = O=C(c1ccc(-c2ccc(N3CCNCC3)cc2)c(CN[*:1])c1)[*:2]

Tests used:
integrin α4β1 [1] = target: T1, integrin α4β1 (Homo sapiens, UniProt P05556+P13612); test: Whole blood ligand displacement (receptor occupancy): biotinylated rhVCAM-1 binding to α4β7-negative Th memory cells; type: cell-based; settings: read-out: VCAM Competition IC50 (receptor occupancy)
Experimental: Receptor occupancy (RO) in primary cells was determined by measuring the amount of biotinylated human recombinant MAdCAM-1-FC or human recombinant VCAM-1-Fc bound to selected cell populations using flow cytometry. Human recombinant MAdCAM-1-FC or human recombinant VCAM-1-FC (R&D systems) were biotinylated using commercially available reagents and protocol (Pierce). Whole blood was collected from human donors in sodium heparin tubes. […] Cells were washed twice with 1 mL of 1×DPBS calcium magnesium free(CMF) (ThermoFisher Scientific) and resuspended in 100 μL of DPBS CMF. […] Cells were washed with 1 mL stain buffer-FBS (BD Biosciences) and resuspended in 100 μl stain Buffer-FBS (BD Biosciences) containing 4 mM MnCl2. […] Cells were then washed with 1 mL stain buffer-FBS and resuspended in 100 μl stain buffer-FBS. The cells were incubated in the dark for 30 minutes at room temperature with 1 μl Streptavidin APC (Biolegend 0.2 mg/ml) and a panel of antibodies for the detection of memory T helper a4b7-positive cells subset. And amount of 5.0 μl each of the following antibodies were used; CD45 FITC (BioLegend 200 μg/ml), CD29 APC Cy7 (BioLegend 100 μg/ml), Integrin beta7 PE, (BioLegend concentration 50 μg/mL), CD49d […] (BioLegend 50 μg/mL), CD3 […] […] Cell population were determined using the following markers, CD45+, CD3+, CD4+, CD45RO+, CD49d+, integrin β7, biotinylated ligands.

integrin α4β1 [2] = target: T1, integrin α4β1; test: Integrin α4β1-VCAM human cell adhesion assay (RAMOS cells); type: cell-based; parameters: host or cells: RAMOS human cells; settings: adhesion of RAMOS cells to VCAM-1 coated plates
Experimental: Integrin α4β1-VCAM Human Cell Adhesion Assay
RAMOS human cells (ATCC CRL-1596) were cultured in RPMI 1640 medium (HyClone SH30027.1) supplemented with 10% FBS (Seradigm) and 1% Penicillin-Streptomycin. A 96-well plate (Costar, 3603) was coated with 100 μl/well of recombinant human VCAM-1 Fc Chimera (R&D systems, 862-VC-100) solution at 0.25 μg/ml in coating buffer (50 mM sodium carbonate, pH 9.6). The plate was incubated overnight at 4° C. and washed twice with […] per well wash buffer (0.05% Tween 20 in PBS), blocked with 250 μl per well blocking buffer (1% non-fat dry milk in PBS), for 1 hour at room temperature. During blocking step, RAMOS cells were resuspended at 10 million cells/ml in PBS containing […] and incubated at 37° C. for 30 min in a 50 ml tube. PBS was added to fill the tube, cells were spun down and resuspended in RPMI 1640 medium to 2 million/mi. Compounds were diluted by serial dilution in binding buffer (1.5 mM CaCl2, 0.5 mM MnCl2, 50 mM Tris-HCl, pH 7.5) to a final volume of 50 μl per well at 2× concentration. […] After last wash, 100 μL of PBS was added to wells and the fluorescence was read (Ex495/Em515) using a plate reader (Tecan Infinite 1000). To calculate the dose response, the fluorescence value of control wells not containing cells was subtracted from each test well.

T1 sequence (P13612 34-1032): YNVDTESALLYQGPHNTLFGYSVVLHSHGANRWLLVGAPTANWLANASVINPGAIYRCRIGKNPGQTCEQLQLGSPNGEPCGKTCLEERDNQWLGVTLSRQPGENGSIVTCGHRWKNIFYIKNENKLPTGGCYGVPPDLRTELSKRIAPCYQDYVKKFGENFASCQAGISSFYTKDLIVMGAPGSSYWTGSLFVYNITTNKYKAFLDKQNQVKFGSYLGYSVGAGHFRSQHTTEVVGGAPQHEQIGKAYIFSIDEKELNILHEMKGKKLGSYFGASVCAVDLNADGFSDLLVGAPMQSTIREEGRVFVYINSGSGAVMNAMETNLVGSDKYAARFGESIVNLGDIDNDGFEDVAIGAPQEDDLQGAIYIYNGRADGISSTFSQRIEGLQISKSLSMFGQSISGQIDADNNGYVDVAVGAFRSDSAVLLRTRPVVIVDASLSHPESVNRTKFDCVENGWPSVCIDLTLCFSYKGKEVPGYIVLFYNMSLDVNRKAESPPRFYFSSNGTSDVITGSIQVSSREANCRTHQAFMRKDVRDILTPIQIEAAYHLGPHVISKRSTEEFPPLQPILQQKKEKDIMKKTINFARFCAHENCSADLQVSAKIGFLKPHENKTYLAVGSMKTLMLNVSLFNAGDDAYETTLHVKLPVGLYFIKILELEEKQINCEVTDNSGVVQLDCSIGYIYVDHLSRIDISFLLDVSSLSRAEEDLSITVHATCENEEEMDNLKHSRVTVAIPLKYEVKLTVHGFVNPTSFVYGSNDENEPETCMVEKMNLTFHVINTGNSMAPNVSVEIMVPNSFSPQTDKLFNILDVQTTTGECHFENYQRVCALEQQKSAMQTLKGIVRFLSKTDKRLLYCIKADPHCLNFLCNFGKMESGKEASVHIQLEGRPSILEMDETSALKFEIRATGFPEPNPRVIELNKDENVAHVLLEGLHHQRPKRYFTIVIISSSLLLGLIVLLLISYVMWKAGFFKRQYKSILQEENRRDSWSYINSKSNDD
T1 sequence (P05556 21-798): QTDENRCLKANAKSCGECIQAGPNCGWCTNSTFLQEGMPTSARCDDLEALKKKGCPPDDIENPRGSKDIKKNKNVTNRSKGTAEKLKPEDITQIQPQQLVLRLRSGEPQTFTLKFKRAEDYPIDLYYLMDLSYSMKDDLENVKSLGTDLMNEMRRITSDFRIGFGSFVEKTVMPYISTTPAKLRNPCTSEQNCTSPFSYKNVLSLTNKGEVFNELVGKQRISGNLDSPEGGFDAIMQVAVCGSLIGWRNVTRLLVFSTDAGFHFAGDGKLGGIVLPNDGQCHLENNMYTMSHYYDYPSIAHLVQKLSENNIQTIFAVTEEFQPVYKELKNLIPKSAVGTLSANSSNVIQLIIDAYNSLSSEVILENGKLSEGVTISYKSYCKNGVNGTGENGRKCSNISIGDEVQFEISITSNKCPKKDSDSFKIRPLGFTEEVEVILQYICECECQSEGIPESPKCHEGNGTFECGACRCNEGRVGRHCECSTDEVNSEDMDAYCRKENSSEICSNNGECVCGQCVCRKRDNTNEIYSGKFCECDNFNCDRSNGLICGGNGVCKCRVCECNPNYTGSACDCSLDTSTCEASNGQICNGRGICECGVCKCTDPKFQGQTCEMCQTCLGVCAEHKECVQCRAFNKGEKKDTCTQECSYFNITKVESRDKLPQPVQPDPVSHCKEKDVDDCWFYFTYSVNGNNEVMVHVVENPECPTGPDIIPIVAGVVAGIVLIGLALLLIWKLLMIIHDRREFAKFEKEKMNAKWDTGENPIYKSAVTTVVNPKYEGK

SMILES | IC50 (integrin α4β1 [1]) [nM] | IC50 (integrin α4β1 [2])
CC(C)C[C@@H]1NC(=O)c2ccc(-c3ccc(N4CCN(Cc5cccc(CN6CCN(c7ccc(-c8ccc9cc8CNC(=O)[C@@H]8CCCN8C(=O)[C@H](C)NC(=O)[C@H]([C@@H](C)O)NC(=O)[C@H](CC(=O)O)NC(=O)[C@H](CC(C)C)NC9=O)cc7)CC6)c5)CC4)cc3)c(c2)CNC(=O)[C@@H]2CCCN2C(=O)[C@H](C)NC(=O)[C@H]([C@@H](C)O)NC(=O)[C@H](CC(=O)O)NC1=O [Compound 18] | 123 | 184 nM
CC(C)C[C@@H]1NC(=O)c2ccc(-c3ccc(N4CCNCC4)cc3)c(c2)CNC(=O)[C@@H]2CCCN2C(=O)[C@H](C)NC(=O)[C@H]([C@@H](C)O)NC(=O)[C@H](CC(=O)O)NC1=O [Compound 8] (cyclo(P[X1]LDTA)) | > 4000 | ~451 nM and 451 nM
